Results reported in ChEMBL document CHEMBL1158318, “Two 5-HT 1A Receptor-Interactive Tryptamine Derivatives from the Unripe Fruit of Evodia rutaecarpa” (J Nat Prod, 1997).

Molecular target: T1, 5-hydroxytryptamine receptor 1A (Homo sapiens, UniProt P08908)
T1 sequence (P08908 whole entry): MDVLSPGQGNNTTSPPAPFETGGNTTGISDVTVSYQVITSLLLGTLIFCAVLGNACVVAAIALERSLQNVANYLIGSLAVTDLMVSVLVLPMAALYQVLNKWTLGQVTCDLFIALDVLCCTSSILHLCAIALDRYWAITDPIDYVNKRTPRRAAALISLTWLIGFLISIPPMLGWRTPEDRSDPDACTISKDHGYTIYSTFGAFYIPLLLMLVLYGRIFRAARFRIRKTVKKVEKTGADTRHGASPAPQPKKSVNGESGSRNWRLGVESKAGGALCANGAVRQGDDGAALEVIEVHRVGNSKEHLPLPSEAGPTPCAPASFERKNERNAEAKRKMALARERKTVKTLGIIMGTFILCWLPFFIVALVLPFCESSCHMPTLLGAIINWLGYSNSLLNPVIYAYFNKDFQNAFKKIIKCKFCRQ
Assay: Displacement of [3H]8-OH-DPAT from 5HT1A receptor by vacuum filtration

COc1cc(-c2oc3cc(O)cc(O)c3c(=O)c2O[C@@H]2O[C@H](CO)[C@H](O)[C@H](O)[C@H]2O)ccc1O and O=c1c(O[C@@H]2O[C@H](CO)[C@H](O)[C@H](O)[C@H]2O)c(-c2ccc(O)c(O)c2)oc2cc(O)cc(O)c12 [HYPEROSIDE] cannot be ordered by Ki: over 100 µM for the first, over 100 µM for the second.

Going from C[n+]1c2n(c(=O)c3ccccc31)CCc1c-2[nH]c2ccccc12 [DEHYDROEVODIAMINE] to O=c1c2ccccc2nc2n1CCc1c-2[nH]c2ccccc12 [RUTAECARPINE], the Ki rises from 36 µM to over 100 µM.

Compared with CN1c2ccccc2C(=O)N2CCc3c([nH]c4ccccc34)[C@H]21 [EVODIAMINE], CNc1ccccc1C(=O)N1CCc2c([nH]c3ccccc23)C1=O [RHETSININE] is lower in Ki: over 100 µM for the first, 32 µM for the second.

First: CC1(C)O[C@H]2CC(=O)OC[C@]23[C@H]2CC[C@@]4(C)[C@H](c5ccoc5)OC(=O)[C@H]5O[C@]54[C@]2(C)C(=O)C[C@@H]13 [LIMONIN]
Second: CNCC(O)c1ccc(O)cc1 (stereo not drawn) [OXEDRINE]
The Ki of the first is higher: over 100 µM for the first, 63 µM for the second. The second binds more tightly here.
